# Source: patent US6737383B1, “Herbicidal oxadiazolidines” (priority 1999, dated 2004)
# Key:
# blackgrass = experiment: Test B pre/postemergence blackgrass; format: in vivo, Alopecurus myosuroides
# Outline: (§1)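 Test chemicals in a non-phytotoxic solvent mixture with surfactant were sprayed preemergence onto planted seeds and postemergence onto plants 2 to 18 cm tall (1- to 4-leaf stage). After twelve to sixteen days in a greenhouse, injury was visually rated against untreated controls from 0 (no effect) to 10 (complete control).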
# surinam grass = experiment: Test B pre/postemergence surinam grass; format: in vivo, Brachiaria decumbens
# Outline: as §1
# morningglory = experiment: Test B pre/postemergence morningglory; format: in vivo, Ipomoea hederacea; details: for Morningglory plant response rating: scale of 0 to 10 where 0 is no effect and 10 is complete control
# Outline: as §1
# smallflower flatsedge = experiment: Test B flood test smallflower flatsedge; format: in vivo, Cyperus difformis
# Outline: (§2)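 Plants were grown to the 2-leaf stage before treatment with test chemical, then held in a greenhouse for twelve to sixteen days. Injury was visually rated against untreated controls on a 0–10 scale, where 0 is no effect and 10 is complete control.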
# bedstraw = experiment: Test B pre/postemergence bedstraw; format: in vivo, Galium aparine
# Outline: as §1
# crabgrass = experiment: Test B pre/postemergence crabgrass; format: in vivo, Digitaria sanguinalis; details: for Crabgrass plant response rating: scale of 0 to 10 where 0 is no effect and 10 is complete control
# Outline: as §1
# velvetleaf = experiment: Test B pre/postemergence velvetleaf; format: in vivo, Abutilon theophrasti; details: for Velvetleaf plant response rating: scale of 0 to 10 where 0 is no effect and 10 is complete control
# Outline: as §1
# wheat = experiment: Test B pre/postemergence wheat; format: in vivo, Triticum aestivum; details: for Wheat plant response rating: scale of 0 to 10 where 0 is no effect and 10 is complete control
# Outline: as §1
# duck salad = experiment: Test B flood test duck salad; format: in vivo, Heteranthera limosa
# Outline: as §2
# wild oat = experiment: Test B pre/postemergence wild oat; format: in vivo, Avena fatua; details: for Wild oats plant response rating: scale of 0 to 10 where 0 is no effect and 10 is complete control
# Outline: as §1
# rice = experiment: Test B flood test rice; format: in vivo, Oryza sativa
# Outline: as §2
# corn = experiment: Test B pre/postemergence corn; format: in vivo, Zea mays; details: for Corn plant response rating: scale of 0 to 10 where 0 is no effect and 10 is complete control
# Outline: as §1
# soybean = experiment: Test B pre/postemergence soybean; format: in vivo, Glycine max; details: for Soybean plant response rating: scale of 0 to 10 where 0 is no effect and 10 is complete control
# Outline: as §1
# purple nutsedge = experiment: Test B pre/postemergence purple nutsedge; format: in vivo, Cyperus rotundus; details: for Nutsedge plant response rating: scale of 0 to 10 where 0 is no effect and 10 is complete control
# Outline: as §1
# rape = experiment: Test B pre/postemergence rape; format: in vivo, Brassica napus; details: for Rape plant response rating: scale of 0 to 10 where 0 is no effect and 10 is complete control
# Outline: as §1
# giant foxtail = experiment: Test B pre/postemergence giant foxtail; format: in vivo, Setaria faberii; details: for Giant foxtail plant response rating: scale of 0 to 10 where 0 is no effect and 10 is complete control
# Outline: as §1
# [1] = Postemergence, Rate 125 g/ha, scale 0 to 10, 0 is no effect, 10 is complete control
# [2] = Preemergence, Rate 62 g/ha, scale 0 to 10 (0 no effect, 10 complete control)
# [3] = Preemergence, Rate 250 g/ha, scale of 0 to 10 where 0 is no effect and 10 is complete control
# [4] = Preemergence, Rate 500 g/ha, scale of 0 to 10 where 0 is no effect and 10 is complete control
# [5] = Rate 62 g/ha, Postemergence, scale of 0 to 10 where 0 is no effect and 10 is complete control
# [6] = Rate 250 g/ha, Postemergence, scale of 0 to 10 where 0 is no effect and 10 is complete control
# [7] = Rate 500 g/ha, Postemergence, scale 0 to 10, 0 no effect, 10 complete control
# [8] = Postemergence (flood test), Rate 125 g/ha, scale 0 to 10, 0 is no effect, 10 is complete control
# [9] = Rate 62 g/ha, Postemergence (flood test species), scale of 0 to 10 where 0 is no effect and 10 is complete control
# [10] = Rate 62 g/ha, flood test species, Pre-emergence, visual evaluation after twelve to sixteen days
# [11] = Rate 125 g/ha, Pre-emergence, flood test species, scale 0 to 10 where 0 is no effect and 10 is complete control
# [12] = Rate 250 g/ha, Pre-emergence, flood-test species, scale 0 to 10, 0 is no effect, 10 is complete control
# [13] = Rate 500 g/ha, Pre-emergence, flood test species, scale 0 to 10 (0 no effect, 10 complete control)
compound,measurement,setting,value
CCC(CC)n1c(=O)on(C(=O)N(c2ccc(F)cc2)C(C)C)c1=O [Compound 358],"Plant response rating, Blackgrass",blackgrass; [1],6
same,"Plant response rating, Blackgrass",blackgrass; [2],4
same,Blackgrass plant response rating (0 to 10 scale),"blackgrass; Preemergence, Rate 125 g/ha",8
same,Blackgrass plant response rating,blackgrass; [3],10
same,Blackgrass plant response rating,blackgrass; [4],10
same,Blackgrass plant response rating,blackgrass; [5],2
same,"Plant response rating, Blackgrass",blackgrass; [6],8
same,"Plant response rating, Blackgrass",blackgrass; [7],8
same,"Plant response rating, B. signalgrass",surinam grass; [1],0
same,"Plant response rating, B. signalgrass",surinam grass; [2],1
same,"B. signalgrass plant response rating (0 to 10 scale, 0 is no effect, 10 is complete control)","surinam grass; Preemergence, Rate 125 g/ha",3
same,B. signalgrass plant response rating,surinam grass; [3],5
same,B. signalgrass plant response rating,surinam grass; [4],7
same,B. signalgrass plant response rating,surinam grass; [5],0
same,"Plant response rating, B. signalgrass",surinam grass; [6],1
same,"Plant response rating, B. signalgrass",surinam grass; [7],2
same,"Plant response rating, Morningglory",morningglory; [1],5
same,"Plant response rating, Morningglory",morningglory; [2],0
same,Morningglory plant response rating (0 to 10 scale),"morningglory; Preemergence, Rate 125 g/ha",0
same,Morningglory plant response rating,"morningglory; Preemergence, Rate 250 g/ha",3
same,Morningglory plant response rating,"morningglory; Preemergence, Rate 500 g/ha",5
same,Morningglory plant response rating,"morningglory; Rate 62 g/ha, Postemergence",3
same,"Plant response rating, Morningglory",morningglory; [7],7
same,"Plant response rating, S. Flatsedge",smallflower flatsedge; [8],0
same,S. Flatsedge plant response rating,smallflower flatsedge; [9],0
same,"Plant response rating, S. Flatsedge (0 to 10 scale, 0 is no effect, 10 is complete control)",smallflower flatsedge; [10],0
same,S. Flatsedge plant response rating,smallflower flatsedge; [11],6
same,S. Flatsedge plant response rating,smallflower flatsedge; [12],8
same,S. Flatsedge plant response rating,smallflower flatsedge; [13],8
same,"Plant response rating, Bedstraw",bedstraw; [1],2
same,"Plant response rating, Bedstraw",bedstraw; [2],0
same,Bedstraw plant response rating (0 to 10 scale),"bedstraw; Preemergence, Rate 125 g/ha",9
same,Bedstraw plant response rating,bedstraw; [3],10
same,Bedstraw plant response rating,bedstraw; [4],10
same,Bedstraw plant response rating,bedstraw; [5],0
same,"Plant response rating, Bedstraw",bedstraw; [6],3
same,"Plant response rating, Bedstraw",bedstraw; [7],6
same,"Plant response rating, Crabgrass",crabgrass; [1],0
same,"Plant response rating, Crabgrass",crabgrass; [2],9
same,Crabgrass plant response rating (0 to 10 scale),"crabgrass; Preemergence, Rate 125 g/ha",10
same,Crabgrass plant response rating,"crabgrass; Preemergence, Rate 250 g/ha",10
same,Crabgrass plant response rating,"crabgrass; Preemergence, Rate 500 g/ha",10
same,Crabgrass plant response rating,"crabgrass; Rate 62 g/ha, Postemergence",0
same,"Plant response rating, Crabgrass",crabgrass; [7],7
same,"Plant response rating, Velvetleaf",velvetleaf; [1],2
same,"Plant response rating, Velvetleaf",velvetleaf; [2],3
same,Velvetleaf plant response rating (0 to 10 scale),"velvetleaf; Preemergence, Rate 125 g/ha",4
same,Velvetleaf plant response rating,"velvetleaf; Preemergence, Rate 250 g/ha",5
same,Velvetleaf plant response rating,"velvetleaf; Preemergence, Rate 500 g/ha",8
same,Velvetleaf plant response rating,"velvetleaf; Rate 62 g/ha, Postemergence",2
same,"Plant response rating, Velvetleaf",velvetleaf; [7],3
same,"Plant response rating, Wheat",wheat; [1],3
same,"Plant response rating, Wheat",wheat; [2],0
same,Wheat plant response rating (0 to 10 scale),"wheat; Preemergence, Rate 125 g/ha",0
same,Wheat plant response rating,"wheat; Preemergence, Rate 250 g/ha",1
same,Wheat plant response rating,"wheat; Preemergence, Rate 500 g/ha",3
same,Wheat plant response rating,"wheat; Rate 62 g/ha, Postemergence",2
same,"Plant response rating, Wheat",wheat; [7],5
same,"Plant response rating, Ducksalad",duck salad; [8],2
same,Ducksalad plant response rating,duck salad; [9],0
same,"Plant response rating, Ducksalad (0 to 10 scale, 0 is no effect, 10 is complete control)",duck salad; [10],0
same,Ducksalad plant response rating,duck salad; [11],0
same,Ducksalad plant response rating,duck salad; [12],0
same,Ducksalad plant response rating,duck salad; [13],2
same,"Plant response rating, Wild oats",wild oat; [1],3
same,"Plant response rating, Wild oats",wild oat; [2],4
same,Wild oats plant response rating (0 to 10 scale),"wild oat; Preemergence, Rate 125 g/ha",5
same,Wild oats plant response rating,"wild oat; Preemergence, Rate 250 g/ha",9
same,Wild oats plant response rating,"wild oat; Preemergence, Rate 500 g/ha",10
same,Wild oats plant response rating,"wild oat; Rate 62 g/ha, Postemergence",0
same,"Plant response rating, Wild oats",wild oat; [7],7
same,"Plant response rating, Rice",rice; [8],0
same,Rice plant response rating,rice; [9],0
same,"Plant response rating, Rice (0 to 10 scale, 0 is no effect, 10 is complete control)",rice; [10],0
same,Rice plant response rating,rice; [11],0
same,Rice plant response rating,rice; [12],0
same,"Plant response rating, Rice","rice; Rate 500 g/ha, listed under Postemergence (flood test species), scale 0 to 10, 0 no effect, 10 complete control",0
same,Rice plant response rating,rice; [13],8
same,"Plant response rating, Corn",corn; [1],0
same,"Plant response rating, Corn",corn; [2],0
same,Corn plant response rating (0 to 10 scale),"corn; Preemergence, Rate 125 g/ha",0
same,Corn plant response rating,"corn; Preemergence, Rate 250 g/ha",2
same,Corn plant response rating,"corn; Preemergence, Rate 500 g/ha",6
same,Corn plant response rating,"corn; Rate 62 g/ha, Postemergence",0
same,"Plant response rating, Corn",corn; [7],0
same,"Plant response rating, Soybean",soybean; [1],4
same,"Plant response rating, Soybean",soybean; [2],0
same,Soybean plant response rating (0 to 10 scale),"soybean; Preemergence, Rate 125 g/ha",0
same,Soybean plant response rating,"soybean; Preemergence, Rate 250 g/ha",0
same,Soybean plant response rating,"soybean; Preemergence, Rate 500 g/ha",1
same,Soybean plant response rating,"soybean; Rate 62 g/ha, Postemergence",4
same,"Plant response rating, Soybean",soybean; [7],7
same,"Plant response rating, Nutsedge",purple nutsedge; [1],0
same,"Plant response rating, Nutsedge",purple nutsedge; [2],0
same,Nutsedge plant response rating (0 to 10 scale),"purple nutsedge; Preemergence, Rate 125 g/ha",0
same,Nutsedge plant response rating,"purple nutsedge; Preemergence, Rate 250 g/ha",0
same,Nutsedge plant response rating,"purple nutsedge; Preemergence, Rate 500 g/ha",0
same,Nutsedge plant response rating,"purple nutsedge; Rate 62 g/ha, Postemergence",0
same,"Plant response rating, Nutsedge",purple nutsedge; [7],0
same,"Plant response rating, Rape",rape; [1],1
same,"Plant response rating, Rape",rape; [2],0
same,Rape plant response rating (0 to 10 scale),"rape; Preemergence, Rate 125 g/ha",0
same,Rape plant response rating,"rape; Preemergence, Rate 250 g/ha",4
same,Rape plant response rating,"rape; Preemergence, Rate 500 g/ha",4
same,Rape plant response rating,"rape; Rate 62 g/ha, Postemergence",1
same,"Plant response rating, Rape",rape; [7],4
same,"Plant response rating, Giant foxtail",giant foxtail; [1],8
same,"Plant response rating, Giant foxtail",giant foxtail; [2],10
same,Giant foxtail plant response rating (0 to 10 scale),"giant foxtail; Preemergence, Rate 125 g/ha",10
same,Giant foxtail plant response rating,"giant foxtail; Preemergence, Rate 250 g/ha",10
same,Giant foxtail plant response rating,"giant foxtail; Preemergence, Rate 500 g/ha",10
same,Giant foxtail plant response rating,"giant foxtail; Rate 62 g/ha, Postemergence",3
same,"Plant response rating, Giant foxtail",giant foxtail; [7],8
